Source: patent publication US7833967B2, “Synthetic antimicrobial polypeptides” (priority 2003, dated 2010)

Tested on: E. coli TOP10
Experiment: Suicide expression system (SES) growth inhibition
Format: cell-based
[1] = Table 2, variants of SEQ ID NO:1, re-tested in the Bioscreen C
[2] = Table 5, mixed-motif library, re-tested in the Bioscreen C
[3] = Table 4, variants of SEQ ID NO:10, re-tested in the Bioscreen C
[4] = Table 3, variants of SEQ ID NO:5, re-tested in the Bioscreen C

Substance	Growth inhibition (%) [2] [%]	Growth inhibition (%) [3] [%]	other results
25 (RRRPPRLPPRFPPRFPPRVPPRVPPRI; Synthetic antimicrobial peptide) [compound 25]			Growth inhibition (%) [1]: 81%
304 (RRRPPRLPRPVPVRPPPRFPRPVPIRP; Synthetic antimicrobial peptide) [compound 304]	90		
160 (RRRPFRPPVRPPFRPPVRPPFRPPFRP; Synthetic antimicrobial peptide) [compound 160]		77	
134 (RRRPFRPPFRPPFRPPVRPPLRPPVRP; Synthetic antimicrobial peptide) [compound 134]		68	
79 (RRRPFRPPFRPPFRPPVRPPVRPPFRP; Synthetic antimicrobial peptide) [compound 79]		82	
180 (RRRPLRPPIRPPIRPPIRPPFRPPFRP; Synthetic antimicrobial peptide) [compound 180]		76	
39 (RRRPRPFPRPFPRPFPRPLPRPFPRPF; Synthetic antimicrobial peptide) [compound 39]			Growth inhibition (%) [4]: 56%
56 (RRRPRPIPRPFPRPFPRPFPRPFPRPI; Synthetic antimicrobial peptide) [compound 56]			Growth inhibition (%) [4]: 51%
219 (RRRPPRLPRPFPFRPPPRVPRPLPFRP; Synthetic antimicrobial peptide) [compound 219]	93		
190 (RRRPFRPPIRPPFRPPIRPPFRPPFRP; Synthetic antimicrobial peptide) [compound 190]		83	
3 (RRRRFPPRFPPRFPPRFPPRFPPRFPP; Synthetic antimicrobial peptide) [compound 3]			Growth inhibition (%) (Table 1, 0.1% inducer (arabinose), pBAD/gIIIA in E. coli TOP10, Bioscreen C 37° C., end point OD450 vs control vector): 43%
32 (RRRPRPFPRPFPHPIPRPLPRPFPRPI; Synthetic antimicrobial peptide) [compound 32]			Growth inhibition (%) [4]: 77%
205 (RRRPFRPPFRPPIRPPVRPPFRPPFRP; Synthetic antimicrobial peptide) [compound 205]		77	
288 (RRRPPRLPRPLPVRPPPRVPRPFPLRP; Synthetic antimicrobial peptide) [compound 288]	96		
96 (RRRPFRPPIRPPFRPPIRPPLRPPIRP; Synthetic antimicrobial peptide) [compound 96]		71	
122 (RRRPFRPPFRPPFRPPVRPPFRPPLRP; Synthetic antimicrobial peptide) [compound 122]		64	
307 (RRRPPRLPRPVPVRPPPRVPRPVPFRP; Synthetic antimicrobial peptide) [compound 307]	92		
194 (RRRPLRPPFRPPFRPPIRPPFRPPFRP; Synthetic antimicrobial peptide) [compound 194]		81	
107 (RRRPFRPPFRPPVRPPFRPPIRPPFRP; Synthetic antimicrobial peptide) [compound 107]		69	
69 (RRRPIRPPFRPPFRPPLRPPFRPPIRP; Synthetic antimicrobial peptide) [compound 69]		75	

Substance	Growth inhibition (%) [2] [%]	Growth inhibition (%) [3] [%]	other results
316 (RRRTRHVFARPFPFRPPPRIPRPFPLRP; Synthetic antimicrobial peptide) [compound 316]	97		
242 (RRRPPRLPRPFPVRPPPRLPRPVPFRP; Synthetic antimicrobial peptide) [compound 242]	90		
119 (RRRPIRPPFRPPIRPPFRPPVRPPVRP; Synthetic antimicrobial peptide) [compound 119]		69	
224 (RRRPPRLPRPFPIRPPPRVPRPFPVRP; Synthetic antimicrobial peptide) [compound 224]	93		
21 (RRRPPRLPPRFPPRFPPRVPPRFPPRV; Synthetic antimicrobial peptide) [compound 21]			Growth inhibition (%) [1]: 86%
23 (RRRPPRLPPRFPPRFPPRVPPRVPPRF; Synthetic antimicrobial peptide) [compound 23]			Growth inhibition (%) [1]: 82%
227 (RRRPPRLPRPFPIRPPPRVPRPVPIRP; Synthetic antimicrobial peptide) [compound 227]	94		
213 (RRRPPRLPRPFPFRPPPRLPRPFPIRP; Synthetic antimicrobial peptide) [compound 213]	94		
51 (RRRPRPFPRPVPRPFPRPFPRPFPRPF; Synthetic antimicrobial peptide) [compound 51]			Growth inhibition (%) [4]: 77%
41 (RRRPRPFPRPFPRPFPRPVPRPLPRPV; Synthetic antimicrobial peptide) [compound 41]			Growth inhibition (%) [4]: 71%
147 (RRRPFRPPFRPPIRPPVRPPVRPPFRP; Synthetic antimicrobial peptide) [compound 147]		79	
184 (RRRPIRPPIRPPFRPPLRPPFRPPFRP; Synthetic antimicrobial peptide) [compound 184]		78	
77 (RRRPFRPPFRPPIRPPVRPPFRPPFRP; Synthetic antimicrobial peptide) [compound 77]		72	
110 (RRRPFRPPLRPPFRPPIRPPIRPPVRP; Synthetic antimicrobial peptide) [compound 110]		73	
264 (RRRPPRLPRPLPFRPPPRFPRPVPVRP; Synthetic antimicrobial peptide) [compound 264]	92		
279 (RRRPPRLPRPLPIRPPPRVPRPLPLRP; Synthetic antimicrobial peptide) [compound 279]	91		
252 (RRRPPRLPRPIPFRPPPRIPRPVPVRP; Synthetic antimicrobial peptide) [compound 252]	92		
230 (RRRPPRLPRPFPLRPPPRFPRPLPLRP; Synthetic antimicrobial peptide) [compound 230]	94		
170 (RRRPIRPPFRPPFRPPFRPPVRPPFRP; Synthetic antimicrobial peptide) [compound 170]		80	
133 (RRRPFRPPIRPPFRPPVRPPIRPPVRP; Synthetic antimicrobial peptide) [compound 133]		62	

Substance	Growth inhibition (%) [2] [%]	Growth inhibition (%) [3] [%]	other results
298 (RRRPPRLPRPVPFRPPPRVPRPVPLRP; Synthetic antimicrobial peptide) [compound 298]	92		
100 (RRRPIRPPFRPPFRPPFRPPFRPPFRP; Synthetic antimicrobial peptide) [compound 100]		84	
52 (RRRPRPFPRPVPRPIPRPFPRPVPRPF; Synthetic antimicrobial peptide) [compound 52]			Growth inhibition (%) [4]: 53%
202 (RRRPFRPPFRPPFRPPLRPPFRPPFRP; Synthetic antimicrobial peptide) [compound 202]		84	
64 (RRRPFRPPFRPPFRPPFRPPFRPPFRP; Synthetic antimicrobial peptide) [compound 64]		82	
157 (RRRPIRPPFRPPIRPPFRPPVRPPLRP; Synthetic antimicrobial peptide) [compound 157]		64	
183 (RRRPFRPPVRPPLRPPFRPPFRPPFRP; Synthetic antimicrobial peptide) [compound 183]		80	
271 (RRRPPRLPRPLPFRPPPRVPRPVPVRP; Synthetic antimicrobial peptide) [compound 271]	97		
204 (RRRPLRPPLRPPFRPPIRPPFRPPFRP; Synthetic antimicrobial peptide) [compound 204]		76	
76 (RRRPIRPPFRPPIRPPVRPPFRPPIRP; Synthetic antimicrobial peptide) [compound 76]		86	
15 (RRRPPRFPPRIPPRLPPRVPPRVPPRL; Synthetic antimicrobial peptide) [compound 15]			Growth inhibition (%) [1]: 57%
263 (RRRPPRLPRPIPVRPPPRVPRPIPLRP; Synthetic antimicrobial peptide) [compound 263]	94		
55 (RRRPRPFPRPVPRPVPRPFPRPLPRPI; Synthetic antimicrobial peptide) [compound 55]			Growth inhibition (%) [4]: 63%
125 (RRRPIRPPFRPPLRPPFRPPVRPPVRP; Synthetic antimicrobial peptide) [compound 125]		73	
195 (RRRPFRPPIRPPFRPPVRPPVRPPVRP; Synthetic antimicrobial peptide) [compound 195]		76	
58 (RRRPRPIPRPFPRPIPRPVPRPFPRPF; Synthetic antimicrobial peptide) [compound 58]			Growth inhibition (%) [4]: 77%
273 (RRRPPRLPRPLPIRPPPRFPRPVPLRP; Synthetic antimicrobial peptide) [compound 273]	92		
262 (RRRPPRLPRPIPVRPPPRLPRPVPLRP; Synthetic antimicrobial peptide) [compound 262]	93		
212 (RRRPPRLPRPFPFRPPPRFPRPVPIRP; Synthetic antimicrobial peptide) [compound 212]	96		
